# Columns and labels:
# [1] = target: recombinant full length PICK1 (Rattus norvegicus, UniProt Q9EP80); assay: SEC of recombinant PICK1 incubated with mPD5; type: binding; settings: PICK1 40 µM + mPD5 10 µM (4:1), Superdex200 Increase 10/300; PICK1 alone 10.9 mL
# [2] = Solubility by visual inspection; type: physicochemical; settings: 10 mM PBS, molar equivalent of 250 mg/mL
# naive mice = assay: Barnes maze, spatial learning and memory; type: in vivo, mouse
# recombinant full length PICK1, sequence (Q9EP80 whole entry): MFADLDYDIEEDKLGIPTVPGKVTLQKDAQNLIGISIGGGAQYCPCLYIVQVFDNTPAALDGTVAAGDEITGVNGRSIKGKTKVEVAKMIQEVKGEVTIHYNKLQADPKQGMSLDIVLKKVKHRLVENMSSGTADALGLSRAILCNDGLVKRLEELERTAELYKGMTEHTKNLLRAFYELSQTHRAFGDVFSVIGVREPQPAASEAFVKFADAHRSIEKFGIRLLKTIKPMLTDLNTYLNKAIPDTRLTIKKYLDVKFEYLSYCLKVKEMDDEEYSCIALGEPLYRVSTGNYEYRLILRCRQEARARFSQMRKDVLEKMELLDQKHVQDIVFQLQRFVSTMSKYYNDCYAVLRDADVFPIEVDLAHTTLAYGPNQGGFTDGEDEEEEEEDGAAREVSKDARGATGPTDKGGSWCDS
smiles,measurement,setting,value
"CCCCCCCCCCCCCC(=O)N(CCOCCOCCC(=O)N[C@@H](Cc1c[nH]cn1)C(=O)N[C@@H](Cc1c[nH]c2ccccc12)C(=O)N[C@@H](CC(C)C)C(=O)N[C@@H](CCCCN)C(=O)N[C@H](C(=O)O)C(C)C)CCOCCOCCC(=O)N[C@@H](Cc1c[nH]cn1)C(=O)N[C@@H](Cc1c[nH]c2ccccc12)C(=O)N[C@@H](CC(C)C)C(=O)N[C@@H](CCCCN)C(=O)N[C@H](C(=O)O)C(C)C [mPD5, myristoyl-NPEG4-(HWLKV)2]",peak elution volume of PICK1 in presence of mPD5,[1],two peaks at 8 mL and 9 mL
same,solubility in PBS,[2],≥ 130 mM
same,"total distance moved, probe test day five",naive mice; s.c. 10 µmol/kg 60 min before maze,no difference
same,"total distance moved, following reversal learning","naive mice; s.c. 10 µmol/kg, probe test day nine",no difference was observed

# Source: doi:10.1101/2023.03.03.530471v2 (bioRxiv, 2023)
